We go through six molecules from publication PMC9516332 (Frontiers in Oncology, 2022).

Where two headings read alike, the source gives them in different places.

Common to all, as to assay: Kinase panel profiling at 1 µmol/L (MSA or IMAP), percentage inhibition
Common to all, as to type: biochemical

Assay [1] addresses panel of 255 wild-type kinases (Homo sapiens, UniProt P04629). To be noted: read-out: %-inhibition at 1 µmol/L, TRKA.
For assay [2], the target named is panel of 255 wild-type kinases (Homo sapiens, UniProt P07949). The conditions noted are these: read-out: %-inhibition at 1 µmol/L, RET.
In assay [3] the target is panel of 255 wild-type kinases (Homo sapiens, UniProt P21802). To be noted: read-out: %-inhibition at 1 µmol/L, FGFR2.
Assay [4] addresses panel of 255 wild-type kinases (Homo sapiens, UniProt P48729). To be noted: read-out: %-inhibition at 1 µmol/L, CK1α.
In assay [5] the target is panel of 255 wild-type kinases (Homo sapiens, UniProt P49137). The conditions noted are these: read-out: %-inhibition at 1 µmol/L, MAPKAPK2.
Assay [6] has as its target panel of 255 wild-type kinases (Homo sapiens, UniProt P49761). To be noted: read-out: %-inhibition at 1 µmol/L, CLK3.
In assay [7] the target is panel of 255 wild-type kinases (Homo sapiens, UniProt P78362). The conditions noted are these: read-out: %-inhibition at 1 µmol/L, SRPK2.
Assay [8] concerns the target panel of 255 wild-type kinases (Homo sapiens, UniProt Q04912). To be noted: read-out: %-inhibition at 1 µmol/L, RON.
For assay [9], the target named is panel of 255 wild-type kinases (Homo sapiens, UniProt Q15349). The conditions noted are these: read-out: %-inhibition at 1 µmol/L, RSK3.
For assay [10], the target named is panel of 255 wild-type kinases (Homo sapiens, UniProt Q16539). The conditions noted are these: read-out: %-inhibition, p38α.
In assay [11] the target is T1, panel of 255 wild-type kinases (Homo sapiens, UniProt Q8IWQ3).
T1 sequence (Q8IWQ3 1-736): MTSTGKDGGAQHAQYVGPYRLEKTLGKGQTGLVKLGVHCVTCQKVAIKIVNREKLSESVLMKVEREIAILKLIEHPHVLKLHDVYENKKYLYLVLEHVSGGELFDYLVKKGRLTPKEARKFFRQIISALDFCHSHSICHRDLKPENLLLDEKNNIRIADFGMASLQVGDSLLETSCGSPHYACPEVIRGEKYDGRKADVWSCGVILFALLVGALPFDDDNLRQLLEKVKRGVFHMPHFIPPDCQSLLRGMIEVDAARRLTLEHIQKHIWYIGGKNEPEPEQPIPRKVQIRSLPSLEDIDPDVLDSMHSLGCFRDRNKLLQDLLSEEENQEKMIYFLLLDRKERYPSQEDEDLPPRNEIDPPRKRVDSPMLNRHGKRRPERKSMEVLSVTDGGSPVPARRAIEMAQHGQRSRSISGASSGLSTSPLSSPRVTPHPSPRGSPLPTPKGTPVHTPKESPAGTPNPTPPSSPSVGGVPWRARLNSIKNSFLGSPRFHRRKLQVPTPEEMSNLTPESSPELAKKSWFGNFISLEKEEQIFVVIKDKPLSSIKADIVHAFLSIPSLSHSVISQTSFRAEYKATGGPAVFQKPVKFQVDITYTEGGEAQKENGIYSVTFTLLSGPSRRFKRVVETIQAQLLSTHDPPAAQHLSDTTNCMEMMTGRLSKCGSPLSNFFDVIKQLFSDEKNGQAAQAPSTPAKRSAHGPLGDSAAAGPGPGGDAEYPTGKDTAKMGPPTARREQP
To be noted: read-out: %-inhibition BRSK2.

Assay [12] addresses T2, panel of 255 wild-type kinases (Homo sapiens, UniProt Q8TDC3).
T2 sequence (Q8TDC3 1-778): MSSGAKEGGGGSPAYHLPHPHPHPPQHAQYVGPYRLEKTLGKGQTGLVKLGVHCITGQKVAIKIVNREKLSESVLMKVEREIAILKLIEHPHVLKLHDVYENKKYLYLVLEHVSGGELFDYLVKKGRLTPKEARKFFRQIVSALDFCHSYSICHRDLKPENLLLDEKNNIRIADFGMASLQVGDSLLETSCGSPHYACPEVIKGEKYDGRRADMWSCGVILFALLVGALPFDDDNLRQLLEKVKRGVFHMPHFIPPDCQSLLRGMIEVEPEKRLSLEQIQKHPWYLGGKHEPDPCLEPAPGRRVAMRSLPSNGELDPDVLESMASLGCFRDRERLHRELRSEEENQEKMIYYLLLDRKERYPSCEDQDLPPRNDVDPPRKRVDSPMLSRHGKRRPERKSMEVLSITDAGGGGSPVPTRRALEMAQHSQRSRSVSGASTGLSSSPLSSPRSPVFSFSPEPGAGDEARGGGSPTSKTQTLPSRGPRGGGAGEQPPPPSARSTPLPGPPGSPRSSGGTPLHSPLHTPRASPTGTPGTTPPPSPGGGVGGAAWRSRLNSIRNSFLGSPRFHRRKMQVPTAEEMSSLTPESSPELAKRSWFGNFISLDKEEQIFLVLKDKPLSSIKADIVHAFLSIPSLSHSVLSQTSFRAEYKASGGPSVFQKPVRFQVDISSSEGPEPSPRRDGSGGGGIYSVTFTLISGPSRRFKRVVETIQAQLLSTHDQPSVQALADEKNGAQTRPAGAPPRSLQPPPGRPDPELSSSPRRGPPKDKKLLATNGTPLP
The conditions noted are these: read-out: %-inhibition BRSK1.

Assay [13] concerns the target panel of 255 wild-type kinases (Homo sapiens, UniProt Q96GD4). To be noted: read-out: %-inhibition AurB.
Assay [14] concerns the target panel of 255 wild-type kinases (Homo sapiens, UniProt Q9UK32). To be noted: read-out: %-inhibition at 1 µmol/L, RSK4.
The target of assay [15] is panel of 255 wild-type kinases (Homo sapiens, UniProt Q9UPE1). The conditions noted are these: read-out: %-inhibition, MSSK1.
Setting [16] is: kinase TRKA, 1 µmol/L single concentration.
[17] abbreviates: kinase RET, 1 µmol/L single concentration.
[18] abbreviates: kinase FGFR2, 1 µmol/L single concentration.
Where [19] appears, read: kinase CK1α, 1 µmol/L single concentration.
[20] abbreviates: kinase MAPKAPK2, 1 µmol/L single concentration.
Where [21] appears, read: kinase CLK3, 1 µmol/L single concentration.
The mark [22] stands for this setting: kinase SRPK2, 1 µmol/L single concentration.
Where [23] appears, read: kinase RON, 1 µmol/L single concentration.
Where [24] appears, read: kinase RSK3, 1 µmol/L single concentration.
Where [25] appears, read: p38α, 1 µmol/L single concentration.
Where [26] appears, read: BRSK2 kinase assay, 1 µmol/L single concentration.
Where [27] appears, read: BRSK1 kinase assay, 1 µmol/L single concentration.
[28] abbreviates: AurB kinase assay, 1 µmol/L single concentration.
Setting [29] is: kinase RSK4, 1 µmol/L single concentration.
Where [30] appears, read: MSSK1, 1 µmol/L single concentration.

Turning to `Cn1cc(-c2cc3c(N4CCN(c5ncc([C@@](C)(N)c6ccc(F)cc6)cn5)CC4)ncnn3c2)cn1` [avapritinib], the inhibition at 1 µM in [1] (setting [16]) is 65%; in [2] (setting [17]), 96%; in assay [3] (setting [18]), 62%; in [4] (setting [19]) it was 5%; in assay [5] (setting [20]), -0.02%; in assay [6] (setting [21]) it was 3.76%. Moreover, the inhibition at 1 µM is -0.951% in [7] (setting [22]); 48% in [8] (setting [23]); 10% in [9] (setting [24]); 0.843% in [10] (setting [25]); 11% in assay [11] (setting [26]); 8.49% in assay [12] (setting [27]). For the same molecule, the inhibition at 1 µM in [13] (setting [28]) is 20%; in assay [14] (setting [29]) it was 7.6%; in [15] (setting [30]), 0.0476%.
For the molecule `Cn1cnc2c(F)c(Nc3ccc(Br)cc3F)c(C(=O)NOCCO)cc21` [binimetinib], the inhibition at 1 µM in [1] (setting [16]) is -5%; in assay [2] (setting [17]) it was -6%; in assay [3] (setting [18]), 4.56%; in assay [4] (setting [19]) it was 9%; in assay [5] (setting [20]) it was -13%; in assay [6] (setting [21]) it was 0.514%. In addition, the inhibition at 1 µM is -1.4% in assay [7] (setting [22]); -3.72% in [8] (setting [23]); -5% in assay [9] (setting [24]); -8% in assay [10] (setting [25]); -13% in assay [11] (setting [26]); -0.585% in assay [12] (setting [27]). Further, the inhibition at 1 µM in [13] (setting [28]) is -3.18%; in assay [14] (setting [29]), -0.233%; in assay [15] (setting [30]) it was -4.37%.
As to `CNC(=O)c1ccc(-c2cnc3ncc(Cc4ccc5ncccc5c4)n3n2)cc1F` [capmatinib], the inhibition at 1 µM was 39% in [1]; 11% in [2]; 7% in assay [3]; -5.42% in [4]; -28% in assay [5]; 8% in assay [6]. Also, the inhibition at 1 µM in assay [7] is -9%; in [8], 13%; in assay [9], 5%; in [10], 3.37%; in assay [11], 1%; in assay [12] it was 0.113%. Besides, the inhibition at 1 µM was 4.24% in [13], 8% in assay [14] and -3.24% in assay [15].
Take `COc1cc2ncnc(Nc3ccc(F)c(Cl)c3)c2cc1NC(=O)/C=C/CN1CCCCC1` [dacomitinib]: the inhibition at 1 µM in [1] (setting [16]) was 6%; in [2] (setting [17]), 40%; in assay [3] (setting [18]), 16%; in assay [4] (setting [19]), 8%; in assay [5] (setting [20]) it was -40%; in [6] (setting [21]), 2.5%. Also, the inhibition at 1 µM in assay [7] (setting [22]) came out at 0.863%; in [8] (setting [23]) it was 5%; in assay [9] (setting [24]), 27%; in assay [10] (setting [25]) it was 39%; in [11] (setting [26]), 6.47%; in [12] (setting [27]) it was 14%. Also, the results for the inhibition at 1 µM in assay [13] (setting [28]), in assay [14] (setting [29]) and in assay [15] (setting [30]) were 2%, 16% and 0.445%, respectively.
As for `C[C@H](Nc1ncnc2nc[nH]c12)c1cc2cccc(Cl)c2c(=O)n1-c1ccccc1` [duvelisib], the inhibition at 1 µM in [1] (setting [16]) is 9%; in assay [2] (setting [17]), 8%; in assay [3] (setting [18]), 5%; in assay [4] (setting [19]), -2%; in assay [5] (setting [20]), -16%; in [6] (setting [21]) it was 1.78%. For the same molecule, the inhibition at 1 µM in assay [7] (setting [22]) was -0.863%; in [8] (setting [23]), 8%; in assay [9] (setting [24]), -0.46%; in assay [10] (setting [25]) it was 5%; in assay [11] (setting [26]), 11%; in assay [12] (setting [27]) it was 0.274%. Besides, the inhibition at 1 µM in assay [13] (setting [28]) is 0.417%; in assay [14] (setting [29]) it was -5%; in [15] (setting [30]), -2.73%.
On to `COC(=O)N[C@@H](C)CNc1nccc(-c2cn(C(C)C)nc2-c2cc(Cl)cc(NS(C)(=O)=O)c2F)n1` [encorafenib], for which the inhibition at 1 µM in assay [1] (setting [16]) was -2.7%; in assay [2] (setting [17]) it was -10%; in assay [3] (setting [18]), 4%; in assay [4] (setting [19]), 36%; in assay [5] (setting [20]), -11%; in assay [6] (setting [21]) it was 4.44%. For the same molecule, the inhibition at 1 µM in assay [7] (setting [22]) was 2%; in assay [8] (setting [23]), -1.42%; in assay [9] (setting [24]), -3.36%; in [10] (setting [25]), 35%; in assay [11] (setting [26]), -8%; in assay [12] (setting [27]), 1.38%. Moreover, the figures for the inhibition at 1 µM in [13] (setting [28]), in [14] (setting [29]) and in assay [15] (setting [30]) were -0.69%, 4.58% and 1.39%, respectively.
